Columns and labels:
circulating cytokines = assay: LPS model of inflammation in the mouse, ELISA of circulating cytokines; type: in vivo, mice
Method: Male C57BI/6 mice are dosed with disclosed compounds 30 minutes before they are exposed to LPS (20 mg/kg). Two hours after the LPS exposure, blood is collected from the mice and an ELISA is conducted to determine the amount of circulating cytokines. Treatment with disclosed compounds leads to reduction in proinflammatory cytokines, such as IL-5 and IL-1β, IL-17, and TNF. Also, treatment with disclosed compounds results in elevated anti-inflammatory cytokines, such as IL-10.

NFκB [1] = assay: NFκB translocation to the nucleus of cardiac fibroblasts (immunostaining); type: cell-based, neonatal rats; settings: unstimulated cells; for cells with NFκB localization in nuclei: 24 hours (untreated 76.6%)
Method: (§1) Thirty hearts from neonatal rats were minced and digested (Neonatal Cardiomyocyte Isolation System, LK003303, Worthington). After tissue digestion and cell dissociation, cell suspensions were plated into 35 mm dishes or onto coverslips in wells of 24-well plates. Serum-free DMEM was added to the cell suspensions and the cells allowed to adhere for 2 hrs. After two hours, the cell suspension was removed and the adherent cells were fed with DMEM containing 10% fetal bovine serum (FBS). Cells were maintained in DMEM+10% FBS for 24 hours before treatments. Treatment duration was 24 hours.
(§2) Cell samples were divided in to 2 groups, stimulated with H2O2 or not stimulated with H2O2. […] The cells that were treated with H2O2 contained a final concentration of 0.001% in the wells. Drug was dissolved in 9.5% Captisol®, to a stock concentration of 5 mg/ml. […] Cells were treated for 24 hours then either fixed for immunostaining or collected as lysates for Western Blot analysis.
After 24 hours of treatment, cells on cover slips were rinsed twice with PBS, fixed in 1% paraformaldehyde for 10 minutes then rinsed in PBS for immunostaining. Cells were permeabilized for 18 minutes in 0.1% Triton-X 100 in PBS, then rinsed three times in PBS for 15 minutes each. Following the rinses, cover slips were incubated in Image-IT FX Signal Enhancer (Invitrogen) to reduce background intensities in images. Subsequently, cells were washed three times 15 min with PBS, followed by one hour of blocking in 10% Normal Goat Serum Cells and 0.05% Triton-X 100, and then incubated overnight in 4° C. with primary antibodies diluted in PBS with 2% Normal Goat Serum and 0.05% Triton-X 100. Antibodies were applied at the following concentrations: Alpha-Smooth Muscle Actin 1:200 (V5228, Sigma-Aldrich), Vimentin 1:200 (V6630, Sigma-Aldrich) and NFκB 1:200 (C-20, Santa Cruz Biotech). Following overnight incubation, cover slips were brought to room temperature over 10 minutes and then rinsed in PBS for 15 min. […]

[2] = Preliminary single dose i.p. pharmacokinetics of NS2 and NS2-SSA adduct formation in wild type mice; type: in vivo, wild type C57B16 mice
Method: Mice were 41-46 days old on the day of treatment, and groups (n=3) were balanced for age, gender and starting weight (18±3 g). […] The results of this study informed the design of a subsequent 8-hour single dose study to measure additional biochemical outcomes (GHB and related metabolites) in both SSADH deficient mice and wild type littermates.
A preliminary assessment of single dose, i.p. pharmacokinetics (PK) was conducted in wild type C57B16 mice. Mice were 41-46 days old at the time of dosing. […] Three mice per timepoint were used for pharmacokinetic analysis. The study design is outlined in Table 6 below.
Homogenates (100 μL) were protein-precipitated with cold acetonitrile containing 0.1% formic acid (900 μL). Serum samples (25 μL) were protein-precipitated with 425 μL of cold acetonitrile containing 0.1% formic acid. Samples were centrifuged at 2,500×g then supernatant was transferred to a clean tube and dried under a constant heated flow of nitrogen (50° C.). Samples were reconstituted in 100 μL of mobile phase A (water with 0.1% formic acid, LC-MS/MS grade reagents).
These studies were performed only in wild-type C57B16 mice (n=21). […] The mice ranged in age from 41-46 days of age.

IL-1β = assay: Western Blot of IL-1β levels in cardiac fibroblasts; type: cell-based, neonatal rats; settings: p<0.01
Method: as §1, §2
(§3) Whole cell lysates were used for Western blotting; nuclear and cytosolic fractions were not prepared. DMEM from cells plated in 35 mm plates was removed, the cells rinsed quickly in PBS, then incubated in 500 ul cold RIPA buffer for 20-30 minutes at 4° C. under gentle rocking. Following RIPA incubation, cells were scraped from the dish using cell scrapers and frozen at −80° C. overnight to increase cell lysing. […]

NFκB [3] = assay: Western Blot of NFκB levels in cardiac fibroblasts; type: cell-based, neonatal rats
Method: as §1, §2, §3

[4] = wild type mice, single dose 10 mg/kg i.p.

## CC(C)(O)c1nc2ccc(Cl)cc2cc1N [NS2, 2-(3-amino-6-chloroquinolin-2-yl)propan-2-ol]
Circulating cytokines; such as IL-5, IL-1β, IL-17, TNF
  pro-inflammatory cytokines: downregulate
Circulating cytokines; such as IL-10
  anti-inflammatory cytokines: upregulate
NFκB [1]; 10 μM
  cells with NFκB localization in nuclei: 30.7%
NFκB [1]; 100 μM
  cells with NFκB localization in nuclei: 35.7%
NFκB [1]; 1 mM, very few cells, not conclusive
  cells with nuclear NFκB: no cells
[2]; both sexes, C57B16 (wild type), mouse, serum, ip, wild type mice, single dose 10 mg/kg i.p., by 24 hours
  concentration at 24 h: < 50 nM
[2]; mouse, in vivo, ip, 10 mg/kg
  tolerability: tolerated
[2]; [4]
  brain penetration of NS2: good brain penetration
  order of NS2 pharmacokinetics: first-order pharmacokinetics
  peak serum concentration of NS2: 43.1 ± 15.4 µM
  time to peak serum concentration of NS2: 0.5 h
[2]; wild type mice, single dose 10 mg/kg i.p., brain
  peak concentration of NS2 in brain: 52.4±22.9
[2]; wild type mice, single dose 10 mg/kg i.p., liver
  peak concentration of NS2 in liver: 116±3.1
IL-1β; H2O2-stimulated cells
  IL-1β levels (Western Blot): significant decreases
IL-1β; unstimulated cells
  IL-1β levels (Western Blot): significant decreases
NFκB [3]; H2O2-stimulated cells, 100 μM or 1 mM
  NFκB level (Western Blot, whole cell lysate): significant decreases
NFκB [3]; non-stimulated cells
  NFκB level (Western Blot, whole cell lysate): significantly decreased
